# Experimental data taken from ChEMBL document CHEMBL1136799, “Design and synthesis of pyrrolidine-5,5'-trans-lactams (5-oxo-hexahydropyrrolo[3,2-b]pyrroles) as novel mechanism-based inhibitors of human cytomegalovirus protease. 4. Antiviral activity and plasma stability” (J Med Chem, 2003).
# Legend:
# [1] = Compound was tested for its stability in human plasma; type: ADME, organism-based
# Human betaherpesvirus 5 [2] = assay: Concentration required to inhibit human cytomegalovirus HCMV-AD169 in ELISA assay
# [3] = molecular target: T1, Capsid scaffolding protein (Human cytomegalovirus (strain AD169) (HHV-5) (Human herpesvirus 5), UniProt P16753); assay: Potency against human cytomegalovirus protease in HCMV pNA assay; set-up: species or system Human herpesvirus 5 strain AD169
# T1 sequence (P16753 whole entry): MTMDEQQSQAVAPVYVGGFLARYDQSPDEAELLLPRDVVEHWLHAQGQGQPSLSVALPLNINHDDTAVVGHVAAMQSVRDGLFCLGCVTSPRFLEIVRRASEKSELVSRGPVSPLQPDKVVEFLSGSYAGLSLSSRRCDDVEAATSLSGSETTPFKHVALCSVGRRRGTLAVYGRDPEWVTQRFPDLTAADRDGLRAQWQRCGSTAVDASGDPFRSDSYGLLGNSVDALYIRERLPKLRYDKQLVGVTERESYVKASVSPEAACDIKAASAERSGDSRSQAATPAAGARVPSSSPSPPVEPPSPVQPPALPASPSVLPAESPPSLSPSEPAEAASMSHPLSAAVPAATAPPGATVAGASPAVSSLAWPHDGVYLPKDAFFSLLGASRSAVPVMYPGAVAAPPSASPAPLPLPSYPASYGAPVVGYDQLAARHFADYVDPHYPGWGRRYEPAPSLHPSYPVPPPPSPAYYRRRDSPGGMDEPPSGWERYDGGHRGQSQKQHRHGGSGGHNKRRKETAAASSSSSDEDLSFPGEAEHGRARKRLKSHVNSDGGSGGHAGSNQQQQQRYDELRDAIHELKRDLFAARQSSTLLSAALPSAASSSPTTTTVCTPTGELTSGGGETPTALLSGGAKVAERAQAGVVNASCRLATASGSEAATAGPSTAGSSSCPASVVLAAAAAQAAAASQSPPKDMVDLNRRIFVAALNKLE
# Vero = assay: Growth inhibition of cytomegalovirus in Vero cells; type: functional, Human betaherpesvirus 5
# [4] = molecular target: T1, Capsid scaffolding protein; assay: Inhibition of human cytomegalovirus protease in HCMV pNA assay.; set-up: species or system Human herpesvirus 5 strain AD169
# Human betaherpesvirus 5 [5] = assay: Concentration required to inhibit human cytomegalovirus HCMV-AD169 in antiviralplaque reduction assay; type: functional, organism-based
Compound,half-life [1],IC50 (Human betaherpesvirus 5 [2]),Ki [3],CCID50 (Vero),IC50 [4],IC50 (Human betaherpesvirus 5 [5])
CC(C)c1ccc(NC(=O)N2CCC[C@H]2C(=O)N2CC[C@H]3[C@H]2[C@H](C)C(=O)N3c2nc3ccc(OC(F)(F)F)cc3s2)cc1,11 h,5300 nM,20 nM,>500 µM,460 nM,–
CC(C)c1ccccc1NC(=O)N1CCC[C@H]1C(=O)N1CC[C@H]2[C@H]1[C@H](C)C(=O)N2C(=O)C1CC1,–,–,–,–,470 nM,–
C[C@@H]1C(=O)N(C(=O)C2CC2)[C@H]2CCN(C(=O)[C@@H]3CCCN3C(=O)c3ccc(-c4ccc(Cl)cc4)cc3)[C@H]12,–,–,–,–,1400 nM,–
CC(C)c1ccc(NC(=O)N2CCC[C@H]2C(=O)N2CC[C@H]3[C@H]2[C@H](C)C(=O)N3C(=O)C2[C@@H](C)[C@H]2C)cc1 (some centres not stated),1.5 h,–,–,375 µM,1800 nM,> 30000 nM
CC(C)c1ccc(NC(=O)N2CCC[C@H]2C(=O)N2CC[C@H]3[C@H]2[C@H](C)C(=O)N3C(=O)C2C(C)(C)C2(C)C)cc1,16 h,–,–,38 µM,> 20000 nM,> 35000 nM
CCCOc1ccc(-c2ccc(NC(=O)N3CCC[C@H]3C(=O)N3CC[C@H]4[C@H]3[C@H](C)C(=O)N4C(=O)C3CC3)cc2)cc1,–,–,9 nM,–,–,–
C[C@@H]1C(=O)N(C(=O)C2CC2)[C@H]2CCN(C(=O)[C@@H]3CCCN3S(=O)(=O)c3cccc4cc(N(C)C)ccc34)[C@H]12,–,–,–,–,1100 nM,–
CC(C)c1ccc(NC(=O)N2CCC[C@H]2C(=O)N2CC[C@H]3[C@H]2[C@H](C)C(=O)N3c2nc3c(Cl)cccc3s2)cc1,–,–,–,>500 µM,290 nM,17100 nM
CC(C)c1ccc(NC(=O)N2CCC[C@H]2C(=O)N2CC[C@H]3[C@H]2[C@H](C)C(=O)N3c2nc3ccc([N+](=O)[O-])cc3s2)cc1,24 h,–,25 nM,128 µM,390 nM,8700 nM
CC(C)Oc1ccc(NC(=O)N2CCC[C@H]2C(=O)N2CC[C@H]3[C@H]2[C@H](C)C(=O)N3C(=O)C2CC2)cc1,–,–,18 nM,–,180 nM,–
CCCOc1ccc(C(=O)N2CCC[C@H]2C(=O)N2CC[C@H]3[C@H]2[C@H](C)C(=O)N3C(=O)C2CC2)cc1,–,–,79 nM,–,540 nM,–
C[C@@H]1C(=O)N(C(=O)C2CC2)[C@H]2CCN(C(=O)[C@@H]3CCCN3C(=O)Nc3ccc(-c4ccc(Cl)cc4)cc3)[C@H]12,–,–,–,–,260 nM,–
CC(C)c1ccc(NC(=O)N2CCC[C@H]2C(=O)N2CC[C@H]3[C@H]2[C@H](C)C(=O)N3c2ccc([N+](=O)[O-])cc2)cc1,> 24 h,–,–,69 µM,8700 nM,> 70000 nM
C[C@@H]1C(=O)N(C(=O)C2CC2)[C@H]2CCN(C(=O)[C@@H]3CCCN3C(=O)c3cccc4ccccc34)[C@H]12,–,–,–,–,890 nM,–
COc1ccc2nc(N3C(=O)[C@@H](C)[C@@H]4[C@@H]3CCN4C(=O)[C@@H]3CCCN3C(=O)Nc3ccc(C(C)C)cc3)sc2c1,–,–,43 nM,>500 µM,220 nM,3200 nM
CCCOc1ccc(S(=O)(=O)N2CCC[C@H]2C(=O)N2CC[C@H]3[C@H]2[C@H](C)C(=O)N3C(=O)C2CC2)cc1,–,–,33 nM,–,230 nM,–
COc1ccc2nc(N3C(=O)[C@@H](C)[C@@H]4[C@@H]3CCN4C(=O)[C@@H]3CCCN3C(=O)Nc3ccc(C(C)C)cc3)sc2n1,9 h,–,–,>500 µM,870 nM,31000 nM
C[C@@H]1C(=O)N(C(=O)C2CC2)[C@H]2CCN(C(=O)[C@@H]3CCCN3C(=O)Nc3cccc(C(F)(F)F)c3)[C@H]12,–,–,–,–,590 nM,–
C[C@@H]1C(=O)N(C(=O)C2CC2)[C@H]2CCN(C(=O)[C@@H]3CCCN3C(=O)Nc3ccccc3)[C@H]12,–,–,–,–,1400 nM,–
Cc1c(C(=O)N2CCC[C@H]2C(=O)N2CC[C@H]3[C@H]2[C@H](C)C(=O)N3C(=O)C2CC2)sc2ccc(Cl)cc12,–,–,2 nM,–,190 nM,–
C[C@@H]1C(=O)N(C(=O)C2CC2)[C@H]2CCN(C(=O)[C@@H]3CCCN3C(=O)Nc3cccc4ccccc34)[C@H]12,–,–,–,–,650 nM,–
CC(C)c1ccc(NC(=O)N2CCC[C@H]2C(=O)N2CC[C@H]3[C@H]2[C@H](C)C(=O)N3c2nc3cc(Cl)ccc3s2)cc1,–,–,–,266 µM,460 nM,49000 nM
C[C@@H]1C(=O)N(C(=O)C2CC2)[C@H]2CCN(C(=O)[C@@H]3CCCN3S(=O)(=O)Cc3ccccc3)[C@H]12,–,–,–,–,2100 nM,–

Compound,half-life [1],IC50 (Human betaherpesvirus 5 [2]),Ki [3],CCID50 (Vero),IC50 [4],IC50 (Human betaherpesvirus 5 [5])
CCCOc1ccc(-c2ccc(S(=O)(=O)N3CCC[C@H]3C(=O)N3CC[C@H]4[C@H]3[C@H](C)C(=O)N4C(=O)C3CC3)cc2)cc1,–,–,33 nM,–,–,–
C[C@@H]1C(=O)N(C(=O)C2CC2)[C@H]2CCN(C(=O)[C@@H]3CCCN3C(=O)c3ccc(-c4ccccc4)cc3)[C@H]12,–,–,21 nM,–,300 nM,–
COc1cccc2sc(N3C(=O)[C@@H](C)[C@@H]4[C@@H]3CCN4C(=O)[C@@H]3CCCN3C(=O)Nc3ccc(C(C)C)cc3)nc12,–,–,–,89 µM,240 nM,5200 nM
C[C@@H]1C(=O)N(C(=O)C2CC2)[C@H]2CCN(C(=O)[C@@H]3CCCN3S(=O)(=O)c3ccc(Cl)cc3)[C@H]12,–,–,–,–,840 nM,–
CC(C)c1ccc(C(=O)N2CCC[C@H]2C(=O)N2CC[C@H]3[C@H]2[C@H](C)C(=O)N3C(=O)C2CC2)cc1,–,–,–,–,390 nM,–
CC(C)c1ccc(NC(=O)N2CCC[C@H]2C(=O)N2CC[C@H]3[C@H]2[C@H](C)C(=O)N3c2nccs2)cc1,> 24 h,–,446 nM,280 µM,1500 nM,> 30000 nM
COc1ccc(C)c2sc(N3C(=O)[C@@H](C)[C@@H]4[C@@H]3CCN4C(=O)[C@@H]3CCCN3C(=O)Nc3ccc(C(C)C)cc3)nc12,> 24 h,–,–,126 µM,1100 nM,17400 nM
C[C@@H]1C(=O)N(C(=O)C2CC2)[C@H]2CCN(C(=O)[C@@H]3CCCN3S(=O)(=O)c3ccc4ccccc4c3)[C@H]12,–,–,40 nM,–,< 190 nM,–
CCCOc1ccc(-c2ccc(C(=O)N3CCC[C@H]3C(=O)N3CC[C@H]4[C@H]3[C@H](C)C(=O)N4C(=O)C3CC3)cc2)cc1,–,–,79 nM,–,–,–
COc1ccc2sc(N3C(=O)[C@@H](C)[C@@H]4[C@@H]3CCN4C(=O)[C@@H]3CCCN3C(=O)Nc3ccc(C(C)C)cc3)nc2c1,–,–,–,>500 µM,230 nM,2400 nM
CCCOc1ccc(NC(=O)N2CCC[C@H]2C(=O)N2CC[C@H]3[C@H]2[C@H](C)C(=O)N3C(=O)C2CC2)cc1,–,–,9 nM,–,210 nM,–
CC(C)c1ccc(NC(=O)N2CCC[C@H]2C(=O)N2CC[C@H]3[C@H]2[C@H](C)C(=O)N3c2nc3ccc(F)cc3s2)cc1,> 24 h,–,–,298 µM,360 nM,12300 nM
C[C@@H]1C(=O)N(C(=O)C2CC2)[C@H]2CCN(C(=O)[C@@H]3CCCN3C(=O)Nc3ccc(C(F)(F)F)cc3)[C@H]12,–,–,15 nM,–,230 nM,–
C[C@@H]1C(=O)N(C(=O)C2CC2)[C@H]2CCN(C(=O)[C@@H]3CCCN3C(=O)Nc3ccc(Cl)cc3)[C@H]12,–,–,38 nM,–,260 nM,–
CC(C)c1ccc(S(=O)(=O)N2CCC[C@H]2C(=O)N2CC[C@H]3[C@H]2[C@H](C)C(=O)N3C(=O)C2CC2)cc1,–,–,99 nM,–,460 nM,–
C[C@@H]1C(=O)N(C(=O)C2CC2)[C@H]2CCN(C(=O)[C@@H]3CCCN3C(=O)c3ccc(Cl)cc3)[C@H]12,–,–,–,–,1400 nM,–
C[C@@H]1C(=O)N(C(=O)C2CC2)[C@H]2CCN(C(=O)[C@@H]3CCCN3S(=O)(=O)c3cccc4ccccc34)[C@H]12,–,–,60 nM,–,370 nM,–
C[C@@H]1C(=O)N(C(=O)C2CC2)[C@H]2CCN(C(=O)[C@@H]3CCCN3S(=O)(=O)c3ccc(-c4ccc(Cl)cc4)cc3)[C@H]12,–,–,–,–,840 nM,–
C[C@@H]1C(=O)N(C(=O)C2CC2)[C@H]2CCN(C(=O)[C@@H]3CCCN3C(=O)Nc3cccc(Cl)c3)[C@H]12,–,–,–,–,650 nM,–
CC(C)c1ccc(NC(=O)N2CCC[C@H]2C(=O)N2CC[C@H]3[C@H]2[C@H](C)C(=O)N3c2nc3cc(S(=O)(=O)C(F)F)ccc3s2)cc1,–,–,–,>500 µM,210 nM,2200 nM
Nc1nc2c(ncn2COC(CO)CO)c(=O)[nH]1 [GANCICLOVIR],–,–,–,>500 µM,–,720 nM
CC(C)Oc1ccc(S(=O)(=O)N2CCC[C@H]2C(=O)N2CC[C@H]3[C@H]2[C@H](C)C(=O)N3C(=O)C2CC2)cc1,–,–,39 nM,–,400 nM,–
C[C@@H]1C(=O)N(C(=O)C2CC2)[C@H]2CCN(C(=O)[C@@H]3CCCN3S(=O)(=O)c3ccccc3)[C@H]12,–,–,–,–,1800 nM,–
